In patent publication US20240409878A1, “SYSTEM AND METHOD FOR PRESERVING ALGAE” (Macro Oceans Inc., priority 2023, published 2024):

Tested on: algae sample
Assay: preservation of an algae sample in a preserving solution
Design: species or system algae (e.g., sugar kelp, ribbon kelp, bull kelp, brown alga)
Settings: for preservation of the algae by the preserving solution: for the target preserving duration; for critical preservation solution concentration: temperature excursions between 0° F. and 140° F., wet mass basis relative to algae mass
Description: The critical preservation solution concentration can depend on the amount of time the algae sample is to be preserved for, a preservation temperature, an algae species (or other taxonomical rank such as phylum, class, order, family, genus, intermediate ranks therebetween associated with the algae), humidity, moisture content, wet mass content of the algae sample (e.g., composition of the wet mass of the algae sample), dry mass content of the algae sample (e.g., composition of the dry mass of the algae sample), and/or other suitable. […] However, other critical values can be determined and/or arrived at (e.g., by controlling temperature excursions particularly high temperature range, for different types of algae, using a mixture of preserving agents to reduce the concentration of any single preserving agent, based on the amount of time to preserve the algae, etc.).
Preserving the received algae sample S300 preferably functions to extend a lifetime of the algae sample without significant degradation of the algae sample and/or products thereof or derived therefrom. S300 can preserve an as received algae sample (e.g., from S100, fresh harvested algae sample, etc.), a processed algae sample (e.g., from S200, an algae sample that was received after one or more processing steps such as in S200 or S400 has been performed, etc.), a previously preserved algae sample (e.g., preserved according to S300, preserved in a manner different from S300, dried algae sample, etc.), and/or any suitable algae sample.
The algae sample is typically not agitated (e.g., mixed) during (e.g., throughout) preservation (e.g., to simplify the preservation process). Alternatively stated, the algae sample is preferably mixed at most only once (e.g., at the beginning of S300 to homogenize the preserving solution and algae sample) and remains unmixed thereafter. However, the algae sample can be agitated during preservation (e.g., according to a schedule, at predetermined times, at a predetermined frequency, etc.).
The algae sample is typically preserved at approximately room temperature (e.g., an ambient temperature of an environment the algae sample is stored at). For instance, the algae sample can be preserved at a temperature between about 50° F. to 110° F. However, the algae sample can be stored at an elevated temperature (e.g., >110° F.), at a refrigeration temperature (e.g., 30-50° F.), freezing temperature (e.g., <about 30° F.), and/or at any suitable temperature. In some variants, the preserved algae sample can undergo temperature excursions as cold as about 0° F. and as high as 140° F. However, additionally or alternatively, the temperature can be controlled to within a target temperature range (e.g., a preservation temperature, a preservation temperature excursion range, etc.).
The algae sample is typically not fully sealed during preservation (e.g., evaporation of solvent, preservative, etc. can occur such as because the sample is loosely covered). […] For example, the algae sample can be preserved in a container where a lid is placed on the container to close the container but where the lid need not form a seal (e.g., is not a hermetic lid).

| Compound | preservation duration before product degradation, mold growth, etc. was detected (5% alcohol solution, target about 1 year of preservation) | preservation of the algae by the preserving solution (less than 8% alcohol (e.g., 1%, 3%, 5%)) | critical preservation solution concentration (preserve for 2 months or less) | critical preservation solution concentration (preserve for 12 months or less) | preservation of the algae by the preserving solution (less than 9% carbonate (e.g., 5%)) | preservation of the algae by the preserving solution (less than 0.5% benzoate (e.g., 0.1%)) |
| --- | --- | --- | --- | --- | --- | --- |
| CCO [alcohol] | about 2 months | did not preserve the algae | at least 5 wt % | at least 8 wt % |  |  |
| O=C([O-])[O-].[Na+].[Na+] [sodium carbonate] |  |  | ≥ 9 wt % |  | did not preserve the algae |  |
| benzoate |  |  |  |  |  | did not preserve the algae |
